Experimental data: publication PMC12023841, “Unlocking the Gates: A Novel Diagnostic Molecule for Quantifying Efflux Levels in Gram‐Positive Bacteria” (Advanced Healthcare Materials, 2025)
“Also recorded” adds a separate entry of the source.

Key:
[1] = test system: SA 1199‐B (norA overexpressing); assay: microbe, parasite or virus in culture; type: cell-based, Staphylococcus aureus; settings: Staphylococcus aureus
[2] = test system: SA‐K1758 (∆norA); assay: microbe, parasite or virus in culture; type: cell-based; settings: Staphylococcus aureus
[3] = Solution‐state stability test in MH‐II broth; type: physicochemical; settings: 512–1 µg mL^−1, 37 °C for a day, centrifuged
Method: Before accessing the minimal inhibitory concentration (MIC), each phenazinium derivative was subjected to a solution‐state stability test. For this experiment, each derivative was solubilized in DMSO to achieve a primary stock solution (20 mg mL^−1). This stock was further diluted in MilliQ to achieve a working stock solution (10 mg mL^−1). […] The tubes were placed in an incubator at 37 °C for a day and later centrifuged at 25 000 rpm for 25 min.

[4] = test system: SA 1199 (Wild‐type, basal); assay: MIC, broth microdilution (CLSI); type: cell-based; settings: Staphylococcus aureus
[5] = test system: Staphylococcus aureus ATCC 25923 (Reference, basal); assay: MIC, broth microdilution (CLSI); type: cell-based; settings: ATCC25923

| SMILES | MIC [1] | MIC [2] | Solution state stability (concentration at which visible precipitation was observed) [3] | MIC [4] | MIC [5] |
| --- | --- | --- | --- | --- | --- |
| CCCCNc1ccc2nc3cc(NCCC)c(N)cc3[n+](CCC)c2c1 [5a1] | 2 µg/mL | 0.5 µg/mL | Visible precipitation was observed at 128 µg mL^−1 and beyond | 1 µg/mL | 1 µg/mL |
| CCCCNc1ccc2nc3cc(NCCCC)c(N)cc3[n+](CCC)c2c1 [5a2] | 2 µg/mL | 0.25 µg/mL | Visible precipitation was observed at 512 µg mL^−1 and beyond | 1 µg/mL | 1 µg/mL |
| CCCCCCCCNc1cc2nc3ccc(NCCCC)cc3[n+](CCC)c2cc1N [5a3] | 64 µg/mL | 8 µg/mL | Visible precipitation was observed at 128 µg mL^−1 and beyond | 64 µg/mL | 64 µg/mL |
| CCCCCCCCNc1cc2nc3ccc(NCCCC)cc3[n+](CCCCCCCC)c2cc1N [5b3] |  | 32 µg/mL | Visible precipitation was observed at 128 µg mL^−1 and beyond | 32 µg/mL | 32 µg/mL |
| CCCCCCCC[n+]1c2cc(NCCCC)ccc2nc2cc(NCCOC)c(N)cc21 [5b4] | 1 µg/mL | 2 µg/mL | excellent solubility and stability; also recorded: Stable | 1 µg/mL | 1 µg/mL |
| CCCCNc1cc2nc3ccc(NCCC)cc3[n+](CCC)c2cc1N [5c1] | 2 µg/mL | 0.5 µg/mL | Stable | 2 µg/mL | 2 µg/mL |
| CCCNc1ccc2nc3cc(NCCOC)c(N)cc3[n+](CCC)c2c1 [5c2] | 8 µg/mL | 4 µg/mL | excellent solubility and stability; also recorded: Stable | 8 µg/mL | 4 µg/mL |
